Test results taken from patent publication US12642859B2, “Macropinocytosis selective monobody-drug conjugates” (priority 2020, dated 2026).
Square brackets hold non-standard residues; d marks the D form. Peptide text beside a SMILES is read from it. * marks the point of attachment. Dolaproine = CO[C@@H]([C@@H]1CCCN1)[C@@H](C)C(=O)O; Dil = CC[C@H](C)[C@H](NC)[C@@H](CC(=O)O)OC; X1 = C[C@@H](N*)[C@@H](O)c1ccccc1; NMeV = CN[C@H](C(=O)O)C(C)C

Key:
[1] = tested on: KMS11 WT Ras, L363 Mutant NRAS, and RPMI 8226 Mutant KRas cells; experiment: Uptake of fluorescently-tagged monobody and MP marker in multiple myeloma cell lines; format: cell-based, human
Description: FIGS. 14A-14C show uptake of fluorescently-tagged monobody and MP marker in human multiple myeloma cancer cell lines. FIGS. 14A and 14B are images showing co-localization of the fluorescently-tagged monobody (red) and MP marker (dextran, green) in KMS11 WT Ras, L363 Mutant NRAS, and RPMI 8226 Mutant KRas cells. DAPI, blue.
The differential uptake was established not only in cell lines of solid tumors, but also in blood cancer such as multiple myeloma. […] Using a similar system to the HeLa KRas^V12 inducible system, we created an inducible KRas^V12 cell system in wild type KRas KMS11 multiple myeloma cells.

[2] = tested on: mutant KRas PDAC cell line MIA PaCa-2; experiment: Macropinocytic uptake, co-localization with dextran; format: cell-based, human
Description: (§1) FIG. 2A and FIG. 2B show the uptake of the fluorescently-tagged monobody and MP marker in human PDAC MIA PaCa and HeLa or HeLa KRas^V12 cells. Co-localization of the fluorescently-tagged monobody (green) and MP marker (dextran, red) in. DAPI, blue. Boxed region is enlarged, inset.
(§2) To determine if non-binding FN domains could be internalized, a well-established doxycycline-inducible mutant KRas^V12 HeLa cell system (hereafter, HeLa KRas^V12) was used in which macropinocytosis is monitored by high-molecular-weight (70 kDa) tetramethyl-rhodamine labeled (TMR−) dextran.

[3] = tested on: KPC 1203 cells; experiment: as above; format: cell-based, mouse
[4] = tested on: HeLa KRas^V12 cells; experiment: Macropinocytic uptake of fluorescently labeled non-binding FN domain, co-localization with TMR-dextran (doxycycline-inducible system); format: cell-based, human
Description: as §1, §2

[5] = Ex vivo organ toxicity analysis (H&E, apoptotic markers, tubulin staining) of MIA PaCa tumor bearing mice; format: in vivo
Description: FIGS. 5A-5B show the enhanced toxicity of FN-MMAE (monobody) in oncogenic KRas cell lines in vivo. In FIG. 5A, established (100-150 mm^3) subcutaneous MiaPaCa and BxPC3 tumors were treated with, PBS (negative control), 0.2 mg/kg of MMAE alone, or 0.2 mg/kg of FN-MMAE non-binding protein conjugate on Days 0, 7, and 14 (yellow arrows). Tumor growth as assessed by volume was slower in FN-MMAE treated animals compared to MMAE treated alone. n=4 per treatment group. Error bars represent SEM of tumor volume.
FIGS. 6A-6B show ex vivo analysis and mode of action of MMAE.
To test the effects in vivo, a MIA PaCa-2 subcutaneous tumor model was used to compare the efficacy of PBS, MMAE, and FN-MMAE (FIG. 5A). After tumors were established, three injections of 0.2 mg/kg drug with respect to MMAE concentration was administered every 7 days. […] This highlights the specificity of reduced uptake by non-macropinocytic cells in relation to free drug, which contributes to the selective effect of the non-binding FN domain-drug conjugate.

SMILES | effect of macropinocytosis inhibitor on FN-Cy5.5 uptake [1] | effect of macropinocytosis inhibitor on uptake of dextran and FN-Cy5.5 [2] | effect of macropinocytosis inhibitor on uptake of dextran and FN-Cy5.5 [3] | effect of macropinocytosis inhibitor on FN domain and dextran uptake [4] | H&E of ex vivo organs ([5]; MIA PaCa tumor bearing mice) | tubulin staining ([5]; kidneys) | apoptotic marker expression (CC3, HMGB1, cleaved Parp1) ([5]; kidneys, compared to PBS)
CCN(c1nc(N)c(C(=O)NC(=N)N)nc1Cl)C(C)C [EIPA] | abolished | abolished uptake of both macromolecules | abolished uptake of both macromolecules | blocked both non-binding FN domain and dextran uptake | – | – | –
CC(Sc1nc2ccccc2[nH]1)C(=O)N/N=C/c1cc(Br)ccc1O (centres unmarked) [KH7] | abolished | – | – | – | – | – | –
CC[C@H](C)[C@@H]([C@@H](CC(=O)N1CCC[C@H]1[C@H](OC)[C@@H](C)C(=O)N[C@H](C)[C@@H](O)c1ccccc1)OC)N(C)C(=O)[C@@H](NC(=O)[C@@H](NC)C(C)C)C(C)C [MMAE, monomethyl auristatin E] (H-[NMeV]V[Dil][Dolaproine]-X1) | – | – | – | – | visual liver damage | drastically reduced | substantial increase in non-specific toxicity
